Test results reported in patent publication US20110212199A1, “AGENT FOR TREATING EYE DISEASES” (priority 2003, published 2011).
“Also recorded” adds a separate entry of the source.

What was measured:
[1] = system: central chorioretinopathy (choriotetinitis); assay: Example 31: central chorioretinopathy; type: in vivo, human
chalazion = assay: Example 14: chalazion; type: in vivo, human; details: child, right eye; 1 mg/l, 1 drop (50 μl) once every morning
[2] = system: pigmentary retinal degeneration; assay: Example 13: pigmentary retinal degeneration; type: in vivo, human; details: after 77 days
Experimental: The patient is person, and has artificial intraocular lens inserted eyes already carried out a cataract operation. Due to pigmentary retinal degeneration, narrowing of visual field occurs. […] After 77 days from initiation of administration, it could be confirmed that both of visual acuity and visual field were improved. Also, when the visual fields were measured by OCTOPUS 1-2-3 static perimeter before administration and after 77 days from the initiation of the administration, and they were compared, it can be confirmed to be improved. (see FIGS. 27 to 30)

[3] = system: epidemic keratoconjunctivitis; assay: Example 29: epidemic keratoconjunctivitis; type: in vivo, human
[4] = system: granular corneal degeneration; assay: Example 19: corneal degeneration; type: in vivo, human
[5] = system: high intraocular pressure open-angle glaucoma; assay: Example 10: high intraocular pressure open-angle glaucoma patient; type: in vivo, human; design: intraocular pressure, right: dose or concentration left out as unconfirmed
Experimental: The patient is person diagnosed as high intraocular pressure open-angle glaucoma. Water-soluble 17β-estradiol inclusion product (Cyclodextrin-encapsulated 17β-estradiol available from SIGMA CO. […] To the above-mentioned patient, 1 drop (25 μl) of eye drops was dropped once every morning for a week.

iridocyclitis = assay: Example 20: iridocyclitis; type: in vivo, human; details: person, right eye; 1 mg/l, 1 drop (50 μl) every morning; after 1 week
Mooren's corneal ulcer = assay: Example 18: corneal ulcer; type: in vivo, human; details: person, right eye; 1 mg/l, 1 drop (50 μl) twice a day
Text: Thus, it can be considered that treatment of autoimmune disease is possible.

cataract = assay: Example 11: cataract patient; type: in vivo, human; details: 1 mg/l, 1 drop (50 μl) once per day
[6] = system: Posner-Schlossmans' Syndrome; assay: Example 21: Posner-Schlossmans' Syndrome; type: in vivo, human
schizophrenia = assay: Example 22: central nerve diseases (schizophrenia patient); type: in vivo, human
asthenopia = assay: Example 30: asthenopia; type: in vivo, human; details: person; 10 mg/l, once (50 μl) a day; 3 weeks
diabetic retinopathy = assay: Example 24: diabetic retinopathy; type: in vivo, human
myopia = assay: Example 15: myopia; type: in vivo, human
photopsia = assay: Example 28: photopsia; type: in vivo, human; details: person; 10 mg/l, 1 drop (50 μl) once a day for 3 weeks
[7] = system: cataract in ultraviolet ray irradiated eyes of mouse; assay: Treatment of cataract (animal experiment), UV-A+UV-B irradiation; type: in vivo
Experimental: Control group (Control): To eyes of mouse (4 eyes) were irradiated ultraviolet rays UV-A+UV-B (each 0.36J: 100 μW×1 hour) from 10 PM to 11 PM at the first day, the third day, the fifth day each once, and three times in total. Provided that, before 1 minute and after 1 minute of each ultraviolet ray irradiation, 1 drop (50 μl) of PBS (phosphate buffered physiological saline) was administered, and 1 drop of PBS was administered each once at the second day, the fourth day, the sixth day, the seventh day, the eighth day, the ninth day and the tenth day.
Pre-administered group of ultraviolet ray irradiation (Pre 0.1 g/l and Pre 0.01 g/l): To eyes of mouse were irradiated ultraviolet rays UV-A+UV-B (each 0.36J: 100 pW×1 hour) from 10 PM to 11 PM at the first day, the third day, the fifth day each once, and three times in total.
Post-administered group of ultraviolet ray irradiation (Post 0.1 g/l and Post 0.01 g/l): To eyes of mouse were irradiated ultraviolet rays UV-A+UV-B (each 0.36J: 100 μW×1 hour) from 10 PM to 11 PM at the first day, the third day and the fifth day each once, and three times in total.

dynamic visual acuity = assay: Example 26: dynamic visual acuity; type: in vivo, human; details: person, left eye; 10 μg/ml, 50 μl one time; 30 minutes to 1 hour and 15 minutes after dropping
[8] = system: corneal endothelial cells; assay: Example 27: regeneration and protection of corneal endothelial cells; type: in vivo, human; details: 10 days
Text: As a measurement device, NONCON ROBO (KONAN INC) specular microscope was used.

[9] = system: intraocular pressure of house rabbit; assay: Effects on intraocular pressure (animal experiment); type: in vivo, colored house rabbits
Experimental: For the experiments, five (10 eyes) colored house rabbits (body weight: 1.8 to 2 kg) with 8 months to 10 months from the birth were used. […] Intraocular pressure of the house rabbit before treating with eye drops/eye washes was 14 mmHg at 1 PM. […] The maximum dropping of the intraocular pressure appeared after 50 minutes from washing. Lowering effects of intraocular pressure continued at least up to after 5 hours from washing. […] This house rabbit was immediately washed again with the same eye drops/eye washes, intraocular pressure was lowered up to 13 mmHg after 45 minutes from washing. The house rabbit subjected to eye drops/eye washes treatment was allowed to stand, and intraocular pressure was measured next day at 9 AM, it was 18 mmHg, and the effects of eye drops/eye washes at the previous day remained. […] The effects of administration can be found to be continued for a long time.

chorioretinal atrophy = assay: Example 23: chorioretinal atrophy; type: in vivo, human; details: person, 1 mg/l
chorioretinal hemorrhage = assay: Example 17: chorioretinal hemorrhage; type: in vivo, human; details: person, right eye; 1 mg/l, 1 drop (50 μl) once every morning, with Adona 30 mg a day orally

In the case of `C[C@]12CC[C@@H]3c4ccc(O)cc4CC[C@H]3[C@@H]1CC[C@@H]2O` [17β-estradiol], the “visual acuity Vs” value ([1]; after treatment, before 0.1) is reported as 0.3, the Vs corrected vision ([1]; after treatment, before 0.8) is reported as 1.5 and the macular edema ([1]; person, left eye, 10 mg/l, 1 drop (50 μl) twice a day, a week) is reported as “macular edema was lightened”. For the same molecule, the “time until tumor disappeared” value (chalazion) was 12 days, the “visual fields by OCTOPUS 1-2-3 static perimeter” value [2] was “improved” and the “Vs vision after correction” value ([2]; before 0.8) was 1.0. The “visual acuity Vs” value ([2]; before 0.8) was 0.5, the eye discharge ([3]; 1 mg/l once a day, fourth day) was “eye discharge was increased” and the keratitis superficialis diffusa ([3]; person, 1 mg/l, 1 drop (50 μl) once a day) was “cured at the fourth day”. The “Vs vision after correction” value ([4]; (1) 2 weeks, before n·c) was 0.8, the “visual acuity Vs” value ([4]; (1) person, left eye, 1 mg/l, 1 drop twice a day, 2 weeks, before 0.6 (n·c)) was 0.4 and the “intraocular pressure, left” value ([5]; after a week, before 24) was 18 mmHg. The “visual field, left eye” value ([5]; after a week, progressed defect before) was “slightly improved”, the “visual field, right eye” value ([5]; after a week, slight defect before) was “substantially normally recovered” and the “intraocular pressure, left” value ([5]; at 3 weeks) was 19 mmHg. The “intraocular pressure, right” value ([5]; at 3 weeks) was 20 mmHg, the “intraocular pressure, right” value ([5]; person, inclusion product […], 1 drop (25 μl) every morning, after a week, before 23) was 16 mmHg and the iridocyclitis outcome (iridocyclitis) was “inflammatory cells in anterior chamber disappeared”. For the same molecule, the “time in which the disease was cured” value (Mooren's corneal ulcer) was 3 weeks, the “opacity of cataract, slit lamp microscope” value (cataract) was “opacity of cataract had been reduced” and the visual acuity (cataract) was “improvement in visual acuity was admitted”. For the same molecule, the iritis ([6]; after 1 week) was “iritis disappeared”, the “intraocular pressure Tos” value ([6]; patient, left eye, 1 mg/l, 1 drop (50 μl) once a day for 1 week, before 36) was 17 mmHg and the “visual acuity Vs” value (schizophrenia; after 14 days, initiation 0.09) was “Vs = 0.1 × IOL (0.1)”. The “Vs vision after correction” value (schizophrenia; after 14 days, initiation 0.1) was “Vs = 0.1 × IOL (0.1)”, the “Vs vision after correction” value (schizophrenia; after 42 days) was 0.1 and the “visual acuity Vs” value (schizophrenia; after 42 days) was 0.09. The “Vs vision after correction” value (schizophrenia; after 77 days) was 0.15, the “visual acuity Vs” value (schizophrenia; after 77 days) was 0.1 and the “Vs vision after correction” value (schizophrenia; after 115 days) was 0.2. For the same molecule, the “visual acuity Vs” value (schizophrenia; after 115 days) was 0.09, the mental state (schizophrenia; patient's statement after 42 days, overall) was “improvement in mental state; also recorded: be encouraged” and the asthenopia (asthenopia) was “asthenopia was lightened”. For the same molecule, the retinal bleeding (diabetic retinopathy; after about 100 days) was “retinal bleeding was disappeared”, the “retinal bleeding, photograph of eyegrounds” value (diabetic retinopathy; person, 1 mg/l, 1 drop (50 μl) once everyday, after about 2 months) was “slightly improved” and the “visual acuity Vs” value (myopia; (1) after 9 days, before 0.6) was 1.0. The “visual acuity Vs” value (myopia; (2) after 45 days, before 0.3) was 0.5, the photopsia symptom (photopsia) was “the symptom was lightened” and the “appearance of cataract, pre-administered vs post-administered group” value ([7]; administered 1 minute before vs after irradiation) was “less appearance of cataract”. The “occurrence of cataract at the tenth day” value ([7]; eye drops 0.1 g/l or 0.01 g/l, 1 drop (50 μl), pre- and post-administered groups, vs PBS control) was “occurrence of cataract had scarcely observed”, the “dynamic visual acuity (KV-100)” value (dynamic visual acuity) was “abruptly improved” and the “number of left eye endothelial cells” value ([8]; before 2906) was 3496 per mm^2. For the same molecule, the number of right eye endothelial cells ([8]; person, 1 mg/l, 1 drop (50 μl) once a day, before 2801) was 3410 cells/mm², the intraocular pressure ([9]; 25 μl (1 drop) of 100 mg/l at 1 PM, after 3.5 hours, before 14 mmHg) was 10 mmHg and the “time the intraocular pressure effect continued” value ([9]; after 25 μl drop at 1 PM) was at least 5 h. For the same molecule, the “time the lowering effect of intraocular pressure continued” value ([9]; after washing) was at least 5 h, the “time of maximum dropping of intraocular pressure” value ([9]; after washing with 100 mg/l eye washes at 1 PM) was 50 min and the intraocular pressure ([9]; high-pressure eye, 45 minutes after second washing) was 13 mmHg. For the same molecule, the intraocular pressure ([9]; high-pressure eye, next day 9 AM, before further administration) was 18 mmHg, the intraocular pressure ([9]; high-pressure eye, second day, 1 hour 50 minutes after third 25 μl drop) was 12 mmHg and the intraocular pressure ([9]; high-pressure eye, second day, 3 hours 15 minutes after 25 μl drop) was 13 mmHg. The intraocular pressure ([9]; high-pressure eye, second day, 3 hours 15 minutes after second 25 μl drop) was 13 mmHg, the intraocular pressure ([9]; high-pressure eye, third day 3:15 PM) was 12 mmHg and the intraocular pressure ([9]; high-pressure eye, third day 6 PM) was 11 mmHg. It also gave an intraocular pressure ([9]; high-pressure eye, third day 9 AM before administration) of 10 mmHg, an intraocular pressure ([9]; high-pressure eye, third day noon, 3 hours after 25 μl drop) of 9 mmHg and an intraocular pressure ([9]; rabbit with one high-pressure eye, 24 mmHg before, 15 minutes after washing at 5 PM) of 15 mmHg. For the same molecule, the “vision after correction, left eye” value (chorioretinal atrophy; 1 drop (50 μl) once a day for 1 month, before 0.1) was 0.3, the “vision after correction, right eye” value (chorioretinal atrophy; 50 μl once a day for 1 month, before 0.08 (n·c)) was 0.2 and the “time until hemorrhage disappeared” value (chorioretinal hemorrhage) was 45 days.
